In patent publication US12162861B2, “Dopamine D3 receptor selective antagonists/partial agonists; method of making; and use thereof” (THE UNITED STATES OF AMERICA, AS REPRESENTED BY THE …, priority 2016, dated 2024):
“Also recorded” adds a separate entry of the source.

Experiments:
squirrel monkeys = assay: THC self-administration in squirrel monkeys (FR10); assay type: in vivo, squirrel monkey (Saimiri sciureus); conditions: FR10, 1, 3, and 10 mg/kg i.m.
Excerpt: Subjects: Seven adult male squirrel monkeys (Saimiri sciureus) weighing 0.8 to 1.1 kg were housed in individual cages in a temperature- and humidity-controlled room with unrestricted access to water. […] The monkeys were trained to self-administer either THC or food pellets prior to the study. Monkeys were fed (approximately two hours after the session) a daily food ration consisting of biscuits of high protein monkey diet (Lab Diet 5045, PMI Nutrition International, Richmond, Indiana). The number of biscuits (8-14) was determined for each monkey individually to maintain their body weights at a constant level throughout the study. […]
Apparatus: Experimental chambers and other apparatus used in this study were the same as previously described (Justinova et al. 2003). […] The chair contained one response lever (Med Associates., USA) mounted on a transparent front wall; each press on the lever with a force greater than 0.2 N produced an audible click and was recorded as a response. […]
Self-administration procedure: Daily one-hour experimental sessions were typically conducted from Monday through Friday with each monkey. […] Before the start of the session, catheters were flushed with 1 ml of saline and one injection was delivered (calculated to fill the dead space of the catheter which was about 0.2 ml). […]

[1] = Phase I metabolic stability in rat liver microsomes; assay type: in vitro ADME; conditions: FIG. 2; 10 μM, 0.5 mg/mL microsomes
Protocol: Methods: Phase I metabolic stability assay was conducted in rat and rhesus monkey liver microsomes. For phase I metabolism, the reaction was carried out with 100 mM potassium phosphate buffer, pH 7.4, in the presence of NADPH regenerating system (1.3 mM NADPH, 3.3 mM glucose 6-phosphate, 3.3 mM MgCl2, 0.4 U/mL glucose-6-phosphate dehydrogenase, 50 μM sodium citrate). Reactions in triplicate were initiated by addition of the liver microsomes to the incubation mixture (compound final concentration was 10 μM; 0.5 mg/mL microsomes). Negative controls in the absence of cofactors were carried out to determine the specific cofactor-free degradation. Compound disappearance was monitored via LC/MS/MS. Chromatographic analysis was performed using an Accela™ ultra high-performance system consisting of an analytical pump, and an autosampler coupled with TSQ Vantage mass spectrometer (Thermo Fisher Scientific Inc., Waltham MA). […] The mobile phase used was composed of 0.1% Formic Acid in Acetonitrile and 0.1% Formic Acid in H2O with gradient elution, starting with 10% (organic) linearly increasing to 99% up to 2 min, maintaining at 99% (2-2.5 min) and re-equilibrating to 10% by 2.7 min. The total run time for each analyte was 5.0 min.

cannabinoid CB2 receptor = cannabinoid CB2 receptor (Homo sapiens, UniProt P34972); assay: Binding to cannabinoid CB2 receptor
human dopamine D3R = molecular target: T1, human dopamine D3R (Homo sapiens, UniProt P35462); assay: D3R mitogenesis assay in CHO cells; assay type: cell-based; conditions: stimulation of mitogenesis, CHO cells with human D3R; read-out: Agonist EC50 ± SEM
T1 construct: expressed in transfected cells; host or cells: CHO

opiate mu receptor = opiate mu receptor (Homo sapiens, UniProt P35372); assay: Binding to opiate mu receptor
Long-Evans rats [2] = assay: Responding during saline substitution (extinction) testing in rats; assay type: in vivo, rat; conditions: 5 or 15 mg/kg
Excerpt: Experiment 2. […] Following the completion of the self-administration testing, rats were allowed to self-administer oxycodone for another 4 daily sessions. […] Fifteen min after injection, they were placed in the chambers and allowed to lever-press for saline infusion for 3 hr.

cannabinoid CB1 receptor = cannabinoid CB1 receptor (Homo sapiens, UniProt P21554); assay: Binding to cannabinoid CB1 receptor
Long-Evans rats [3] = assay: Reinstatement of drug-seeking induced by oxycodone priming in rats; assay type: in vivo, rat; conditions: 5-15 mg/kg i.p., oxycodone priming 1 mg/kg i.p.
Protocol: Experiment 3. […] After completion of self-administration training, three additional groups of animals were exposed to the extinction conditions, in which cocaine was replaced by saline, and the cocaine-associated cue-light and tone were turned off. Active lever-pressing led only to saline infusion. Daily 3 hr extinction sessions for each rat continued until lever presses ≤10 times per 3 h session for at least 3 consecutive days. […] Fifteen min after injection, they were given a priming injection of oxycodone (1 mg/kg i.p.) and immediately put into the self-administration chambers. Animals were allowed to press levers for another extinction session and their responses on the levers were recorded.

opiate delta receptor = opiate delta receptor (Homo sapiens, UniProt P41143); assay: Binding to opiate delta receptor
opiate kappa receptor = opiate kappa receptor (Homo sapiens, UniProt P41145); assay: Binding to opiate kappa receptor
Sequence of opiate kappa receptor (P41145 whole entry): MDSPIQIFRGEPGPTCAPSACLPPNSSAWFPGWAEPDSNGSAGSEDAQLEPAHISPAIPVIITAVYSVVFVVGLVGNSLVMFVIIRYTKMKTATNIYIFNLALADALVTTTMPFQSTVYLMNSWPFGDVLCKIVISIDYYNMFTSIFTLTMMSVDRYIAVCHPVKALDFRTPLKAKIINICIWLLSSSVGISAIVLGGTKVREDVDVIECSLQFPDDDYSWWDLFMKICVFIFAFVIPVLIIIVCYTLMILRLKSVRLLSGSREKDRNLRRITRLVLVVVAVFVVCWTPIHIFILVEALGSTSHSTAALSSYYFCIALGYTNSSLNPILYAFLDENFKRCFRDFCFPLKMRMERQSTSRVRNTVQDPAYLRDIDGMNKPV

Sequence of opiate delta receptor (P41143 whole entry): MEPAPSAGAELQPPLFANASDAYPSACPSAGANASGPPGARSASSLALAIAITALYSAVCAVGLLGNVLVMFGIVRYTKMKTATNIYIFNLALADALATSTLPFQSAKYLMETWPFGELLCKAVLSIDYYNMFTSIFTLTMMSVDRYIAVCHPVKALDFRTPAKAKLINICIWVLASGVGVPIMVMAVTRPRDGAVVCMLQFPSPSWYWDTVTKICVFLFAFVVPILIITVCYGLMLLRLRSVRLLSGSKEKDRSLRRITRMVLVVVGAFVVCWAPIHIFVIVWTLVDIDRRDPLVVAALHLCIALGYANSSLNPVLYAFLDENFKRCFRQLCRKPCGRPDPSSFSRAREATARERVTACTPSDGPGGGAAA
Sequence of opiate mu receptor (P35372 whole entry): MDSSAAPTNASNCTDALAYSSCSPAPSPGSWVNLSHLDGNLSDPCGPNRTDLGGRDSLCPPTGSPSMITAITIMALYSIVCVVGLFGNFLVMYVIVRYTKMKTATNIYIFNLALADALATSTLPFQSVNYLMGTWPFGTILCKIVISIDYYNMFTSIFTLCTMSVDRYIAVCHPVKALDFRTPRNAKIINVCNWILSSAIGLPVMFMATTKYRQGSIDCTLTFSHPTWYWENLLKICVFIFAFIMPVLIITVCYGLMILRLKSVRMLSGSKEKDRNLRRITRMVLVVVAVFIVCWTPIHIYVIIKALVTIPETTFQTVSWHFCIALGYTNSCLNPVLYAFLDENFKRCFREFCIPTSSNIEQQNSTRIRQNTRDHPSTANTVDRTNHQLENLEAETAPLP
T1 sequence (P35462 whole entry): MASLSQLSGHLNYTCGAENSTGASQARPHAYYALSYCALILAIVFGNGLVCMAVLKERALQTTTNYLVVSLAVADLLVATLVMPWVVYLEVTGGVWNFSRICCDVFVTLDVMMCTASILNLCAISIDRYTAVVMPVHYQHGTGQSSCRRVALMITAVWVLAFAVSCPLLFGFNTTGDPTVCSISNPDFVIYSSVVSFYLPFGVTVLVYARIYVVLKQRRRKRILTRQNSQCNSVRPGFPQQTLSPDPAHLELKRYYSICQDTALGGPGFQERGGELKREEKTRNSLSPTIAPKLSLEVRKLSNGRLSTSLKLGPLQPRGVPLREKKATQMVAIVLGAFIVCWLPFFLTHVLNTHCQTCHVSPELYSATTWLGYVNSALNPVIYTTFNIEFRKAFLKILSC
Sequence of cannabinoid CB1 receptor (P21554 whole entry): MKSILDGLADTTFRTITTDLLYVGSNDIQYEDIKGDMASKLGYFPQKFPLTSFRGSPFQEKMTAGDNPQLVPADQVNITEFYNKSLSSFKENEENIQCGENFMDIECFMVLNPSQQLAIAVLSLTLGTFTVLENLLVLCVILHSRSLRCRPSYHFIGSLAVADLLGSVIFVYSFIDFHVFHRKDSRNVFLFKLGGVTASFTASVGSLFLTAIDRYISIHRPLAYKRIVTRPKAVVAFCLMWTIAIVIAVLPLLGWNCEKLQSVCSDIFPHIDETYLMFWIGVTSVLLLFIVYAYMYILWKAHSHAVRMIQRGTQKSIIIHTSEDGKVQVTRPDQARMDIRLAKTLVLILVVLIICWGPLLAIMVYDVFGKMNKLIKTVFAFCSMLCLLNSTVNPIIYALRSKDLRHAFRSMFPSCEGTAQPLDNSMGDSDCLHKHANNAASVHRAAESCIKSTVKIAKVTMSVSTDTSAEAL
Sequence of cannabinoid CB2 receptor (P34972 whole entry): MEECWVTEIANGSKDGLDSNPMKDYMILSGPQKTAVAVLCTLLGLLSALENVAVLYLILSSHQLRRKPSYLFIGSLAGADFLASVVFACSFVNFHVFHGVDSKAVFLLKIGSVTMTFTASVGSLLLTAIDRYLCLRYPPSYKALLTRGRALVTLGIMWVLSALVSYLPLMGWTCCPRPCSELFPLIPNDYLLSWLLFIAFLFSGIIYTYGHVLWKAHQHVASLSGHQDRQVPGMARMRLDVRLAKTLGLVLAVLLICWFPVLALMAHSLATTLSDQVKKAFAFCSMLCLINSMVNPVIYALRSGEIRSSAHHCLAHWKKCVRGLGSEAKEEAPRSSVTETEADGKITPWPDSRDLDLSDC

binding to cannabinoid CB2 receptor (cannabinoid CB2 receptor): does not bind | EC50 (human dopamine D3R): > 8.3 µM | binding to opiate mu receptor (opiate mu receptor): does not bind | binding to cannabinoid CB1 receptor (cannabinoid CB1 receptor): does not bind | binding to opiate delta receptor (opiate delta receptor): does not bind | binding to opiate kappa receptor (opiate kappa receptor): does not bind
SMILES: CCc1cc(Cl)c(OC)c(N2CCN(CC(O)CCNC(=O)c3cc4ccccc4[nH]3)CC2)c1 (racemic) [Compound 29, N-(4-(4-(3-chloro-5-ethyl-2-methoxyphenyl)piperazin-1-yl)-3-hydroxybutyl)-1H-indole-2-carboxamide]
THC self-administration (squirrel monkeys; FIG. 7): attenuates THC self-administration; also recorded: dose-dependently blocked THC self-administration | THC self-administration (squirrel monkeys; FIG. 7, listed as (±)-29): attenuation of THC self-administration | metabolic stability in rat liver microsomes versus PG648 [1]: improved metabolic stability as compared to Compound 1; also recorded: significantly more stable than PG648 | oxycodone seeking during extinction testing (Long-Evans rats [2]): inhibited oxycodone seeking during extinction testing | oxycodone-induced reinstatement to drug seeking (Long-Evans rats [3]; FIG. 4): blocked oxycodone-induced reinstatement to drug seeking | oxycodone-induced reinstatement to drug seeking (Long-Evans rats [3]; FIG. 4, listed as (±)-29): attenuating effects
